Patent US8012944B2, “Method for treating cancer using IAP antisense oligomer and chemotherapeutic agent” (Pharmascience Inc., priority 2003, dated 2011)
Oligonucleotides are written 5' to 3', each unit as a sugar letter and its base; * is a phosphorothioate linkage, no mark a phosphodiester; rarer units and linkages stand in square brackets, end groups in braces. Plain capitals give the bases only. d = 2'-deoxy (DNA); m = 2'-O-methyl

Tests used:
XIAP mRNA [1] = experiment: XIAP mRNA knock-down in H460 cells (real-time RT-PCR / TaqMan); format: cell-based, human
Method: RNA was extracted from cells lysed in RLT buffer (QIAGEN, Valencia, Calif.), and purified using QIAGEN RNeasy columns/kits. Real-time quantitative PCR was performed on a Perkin-Elmer ABI 7700 Prism PCR machine. RNA was reverse transcribed and amplified according to the TaqMan Universal PCR Master Mix protocol of PE Biosystems, using primers and probes designed to specifically recognize XIAP, HIAP1, survivin, or GAPDH. For human survivin, the forward primer was 5′-[…]-3′ (SEQ ID NO: 263), the reverse primer was 5′-GAAAGGAAAGCGCAACCG-3′ (SEQ ID NO: 264), and the probe was 5′-(FAM)[…](TAMRA)-3′ (SEQ ID NO: 265). For human HIAP1, the forward primer was 5′-[…]-3′ (SEQ ID NO: 266), the reverse primer was 5′-[…]-3′ (SEQ ID NO: 267), and the probe was 5′-(FAM)[…](TAMRA)-3′ (SEQ ID NO: 268). For human XIAP, the forward primer was 5′-[…]-3′ (SEQ ID NO: 269), the reverse primer was 5′-[…]-3′ (SEQ ID NO: 270), and the probe was 5′-(FAM)[…](TAMRA)-3′ (SEQ ID NO: 271). For human GAPDH, the forward primer was 5′-GAAGGTGAAGGTCGGAGTC-3′ (SEQ ID NO: 272), the reverse primer was 5′-GAAGATGGTGATGGGATTC-3′ (SEQ ID NO: 273), and the probe was 5′-(JOE)[…](TAMRA)-3′ (SEQ ID NO: 274). FAM is 6-carboxyfluoroscein, JOE is 6-carboxy-4,5-dichloro-2,7-dimethoxyfluoroscein, and TAMRA is 6-carboxy-N,N,N′,N′-tetramethylrhodamine. FAM and JOE are 5′ reporter dyes, while TAMRA is a 3′ quencher dye.
Relative quantification of gene expression was performed as described in the PE Biosystems manual using GAPDH as an internal standard. The comparative Ct (cycle threshold) method was used for relative quantitation of IAP mRNA levels compared to GAPDH mRNA levels. Briefly, real-time fluorescence measurements were taken at each PCR cycle and the threshold cycle (Ct) value for each sample was calculated by determining the point at which fluorescence exceeded a threshold limit of 30 times the baseline standard deviation. The average baseline value and the baseline SD are calculated starting from the third cycle baseline value and stopping at the baseline value three cycles before the signal starts to exponentially rise. The PCR primers and/or probes for the specific IAPs were designed to span at least one exon-intron boundary separated by 1 kb or more of genomic DNA, to reduce the possibility of amplifying and detecting genomic DNA contamination. The specificity of the signal, and possible contamination from DNA, were verified by treating some RNA samples with either DNase or RNase, prior to performing the reverse transcription and PCR reaction steps.
A portion of the 96 nucleobase oligomers depicted in Table 2 were rescreened for their ability to knock-down XIAP mRNA in NCI-H460 cells at […] post-transfection.
One day prior to transfection, H460 cells were plated in 6- or 96-well tissue culture plates. Phosphorothioate antisense oligonucleotides were delivered into cells with Lipofectamine 2000 (Life Technologies) in the form of liposome-oligonucleotide complexes. Following a 4.5 or 6 h transfection, the transfection medium was replaced with RPMI medium containing 10% FBS, and the cells incubated for another 24 or 48 h.
Total RNA from H460 cells treated with liposome-oligonucleotide complexes for 6 hours was immediately isolated using RNeasy mini spin columns and DNase treatment (QIAGEN, Valencia, Calif.). Specific XIAP mRNA was measured using a real-time quantitative RT-PCR method. […]

XIAP mRNA [2] = experiment: as above; format: cell-based, human; details: 2 × 2 MBO; NCI-H460 cells, 9 hours post-transfection; relative level (mock control 1.01)

| Substance | XIAP down-regulation H460 RNA (XIAP mRNA [1]) [%] | XIAP RNA (XIAP mRNA [2]) |
| --- | --- | --- |
| AAAATTCTAAGTACCTGCA (mA*mAdAdAdTdTdCdTdAdAdGdTdAdCdCdTdGmC*mA; antisense) [Code A1] | 48 | 0.46 |
| AAAGCATAAAATCCAGCTC (antisense; sugars from the 5' end m2 d15 m2, backbone, methylation of C and T or U not given here; further chemistry not fully specified) [Code C8] | 16 | 1.01 |
| AAGCAGTGCACTTGGTCAC (antisense; sugars from the 5' end m2 d15 m2, linkages s1 o16 s1 (s phosphorothioate, o phosphodiester), methylation of C not given here) [Code G6] | 69 |  |
| AAGCTTCTCCTCTTGCAGG (antisense; sugars from the 5' end m2 d15 m2, linkages s1 o16 s1 (s phosphorothioate, o phosphodiester), methylation of C not given here) [Code F10] | 51 | 0.64 |
| AAGTAAAGATCCGTGCTTC (antisense; sugars from the 5' end m2 d15 m2, backbone, methylation of C and T or U not given here; further chemistry not fully specified) [Code H7] | 63 | 0.49 |
| AAGTCAGTTCACATCACAC (antisense; sugars from the 5' end m2 d15 m2, linkages s1 o16 s1 (s phosphorothioate, o phosphodiester), methylation of C not given here) [Code F11] | 64 | 0.36 |
| AATGTGAAACACAAGCAAC (antisense AANGNGAAACACAAGCAAC; sugars from the 5' end m2 d15 m2, linkages s1 o16 s1 (s phosphorothioate, o phosphodiester), the base at N not given here) [Code C3] | 43 | 0.55 |
| ACACGACCGCTAAGAAACA (antisense ACACGACCGCNAAGAAACA; sugars from the 5' end m2 d15 m2, linkages s1 o16 s1 (s phosphorothioate, o phosphodiester), the base at N not given here) [Code H2] | 46 | 0.56 |
| ACAGGACTACCACTTGGAA (antisense; chemistry not fully specified) [Code B4] | 76 |  |
| ACATAGTGTTTTGCCACTT (antisense; sugars from the 5' end m2 d15 m2, backbone, methylation of C and T or U not given here; further chemistry not fully specified) [Code F12] | 74 | 0.26 |
| ACATTATATTAGGAAATCC (mA*mCdAdTdTdAdTdAdTdTdAdGdGdAdAdAdTmC*mC; antisense) [Code D3] | 30 | 0.68 |
| ACTGGGCTTCCAATCAGTT (antisense; sugars from the 5' end m2 d15 m2, backbone, methylation of C and T or U not given here; further chemistry not fully specified) [Code H8] |  | 0.61 |
| AGATGGTATCATCAATTCT (antisense; sugars from the 5' end m2 d15 m2, backbone, methylation of C and T or U not given here; further chemistry not fully specified) [Code F9] | 19 | 0.97 |
| AGCACATGGGACACTTGTC (antisense; sugars from the 5' end m2 d15 m2, backbone, methylation of C and T or U not given here; further chemistry not fully specified) [Code B11] | 63 | 0.39 |
| AGCACATTGTTTACAAGTG (antisense; sugars from the 5' end m2 d15 m2, backbone, methylation of C and T or U not given here; further chemistry not fully specified) [Code A11] | 68 | 0.36 |
| AGTATGAAATATTTCTGAT (antisense; sugars from the 5' end m2 d15 m2, backbone and T or U not given here; further chemistry not fully specified) [Code E1] | 69 | 0.31 |
| AGTTCTCAAAAGATAGTCT (antisense; sugars from the 5' end m2 d15 m2, backbone and T or U not given here; further chemistry not fully specified) [Code G5] | 30 | 0.68 |
| ATATTTCTATCCATACAGA (antisense; sugars from the 5' end m2 d15 m2, backbone, methylation of C and T or U not given here; further chemistry not fully specified) [Code G10] | 56 | 0.49 |
| ATGATCTCTGCTTCCCAGA (antisense; sugars from the 5' end m2 d15 m2, backbone and T or U not given here; further chemistry not fully specified) [Code E5] | 46 | 0.52 |
| ATTATTTTCTTAATGTCCT (antisense; sugars from the 5' end m2 d15 m2, backbone, methylation of C and T or U not given here; further chemistry not fully specified) [Code A10] | 29 | 0.85 |
| ATTCAAGGGATCAAAGTTG (antisense; sugars from the 5' end m2 d15 m2, backbone and T or U not given here; further chemistry not fully specified) [Code A2] | 58 | 0.42 |
| ATTCAATCAGGGTAATAAG (antisense; sugars from the 5' end m2 d15 m2, backbone, methylation of C and T or U not given here; further chemistry not fully specified) [Code E11] | 48 | 0.52 |
| ATTCGCACAAGTACGTGTT (antisense; sugars from the 5' end m2 d15 m2, backbone, methylation of C and T or U not given here; further chemistry not fully specified) [Code D12] | 77 | 0.23 |
| ATTGGTTCCAATGTGTTCT (antisense; chemistry not fully specified) [Code F1] | 81 |  |
| CAGATATATATGTAACACT (antisense; sugars from the 5' end m2 d15 m2, backbone and T or U not given here; further chemistry not fully specified) [Code C1] | 66 | 0.3 |
| MAmUGACCACTTCCTCTATmGmG (ANGACCACNNCCNCNANGG; 2'-O-methyl modifications, chemistry not fully specified) [DE4 rev, reference compound] |  | 1.06 |
| TATCCACTTATGACATAAA (antisense; chemistry not fully specified) [Code A3] | 27 |  |
